According to patent US7919673B2, “Transgenic pig with altered incretin function” (Ludwig-Maximilians-Universitat, priority 2008, dated 2011):
Entries after “also recorded” stand apart in the source; their conditions may differ.

Tests used:
[1] = test system: GIPR^dn transgenic (tg) and control (wt) pigs; test: GIP/Exendin-4 stimulation test in 7-months-old (28-36 weeks) pigs; format: in vivo, pig; settings: 28- to 36-week-old; for insulin secretion compared to glucose administration alone: 10 pmol/kg BW Exendin-4 i.v. 3 min after i.v. glucose, p<0.05
Excerpt: (§1) For the oral glucose tolerance test (OGTT), one central venous catheter (Cavafix® Certo®, B. Braun, Melsungen, Germany) was inserted non-surgically into the external jugular vein under general anesthesia according to the manufacturer's instructions. For accomplishment of the GIP/Exendin-4 stimulation test as well as the intravenous glucose tolerance test, two central venous catheters (Cavafix® Certo®, B. Braun) were surgically inserted into the external jugular vein under general anesthesia using a modified method of Moritz et al. (24). At the start of the study period, all animals had fully recovered from the surgical procedure as evaluated by normal behavior and food intake.
(§2) The OGTT was performed in 11-week old and 5-month-old non-restrained, freely moving animals. After an 18-h overnight fast, animals were fed 2 g/kg BW glucose (25) mixed with 100 g of commercial pig fodder (Deuka primo care in 11-week-old pigs; Deuka porfina U in 5-month-old pigs; Deuka, Düsseldorf, Germany). The meal was eaten from a bowl under supervision. Blood samples were obtained from the jugular vein catheter at −10, 0, 15, 30, 45, 60, 90 and 120 minutes relative to the glucose load in 11-week-old pigs and at −15, −5, 0, 15, 30, 45, 60, 90, 120, 150 and 180 minutes relative to the glucose load in 5-month-old pigs. Serum glucose levels were determined using an AU 400 autoanalyzer (Olympus, Hamburg, Germany) while serum insulin levels were measured in duplicate using a porcine insulin radioimmunoassay (RIA) kit (Millipore, Billerica, USA) according to the manufacturer's instructions.
(§3) The GIP/Exendin-4 stimulation test was performed in 10- to 13-week old and 7-months-old (28-36 weeks) non-restrained freely moving animals. In 7-months-old animals, 0.5 g glucose/kg BW were administered intravenously as a bolus of concentrated 50% glucose solution following an 18-hour fasting period (26). After three minutes 20 pmol/kg BW of synthetic porcine GIP (Bachem, Weil am Rhein, Germany) or 10 pmol/kg BW of synthetic Exendin-4 (Bachem) were administered intravenously. Blood samples were collected −15, 0, 1, 3, 6, 9, 11, 13, 18, 23, 28, 33, 48 and 60 minutes relative to the glucose load. In 10- to 13-week-old animals, 0.5 g glucose/kg BW were administered intravenously as a bolus of concentrated 50% glucose solution following an 18-hour fasting period (26). Right after glucose administration 80 pmol/kg BW of synthetic porcine GIP (Bachem, Weil am Rhein, Germany) or 40 pmol/kg BW of synthetic Exendin-4 (Bachem) were administered intravenously. […]
(§4) All data are presented as means±SEM. […] Data from the GIP/Exendin-4 stimulation tests in 10- to 13-week-old animals as well as from proliferation index (Ki67 immunohistochemistry) were analyzed using ANOVA (analysis of variance) (SAS). […]

[2] = test system: GIPR^dn transgenic (tg) and control (wt) pigs; test: GIP/Exendin-4 stimulation test in 10- to 13-week-old pigs; format: in vivo, pig; settings: for insulinotropic effect in GIPR^dn transgenic pigs compared to controls: 10- to 13-week-old (eleven-week-old) pigs, intravenously administrated with glucose
Excerpt: as §1, §2, §3, §4

## Exendin-4
[1]; GIPR^dn transgenic pigs
  insulin secretion compared to glucose administration alone: significant stimulation; also recorded: significant increase
[1]; control pigs
  insulin secretion compared to glucose administration alone: significant increase
[2]
  insulinotropic effect in GIPR^dn transgenic pigs compared to controls: enhanced
[2]; 10- to 13-week-old pigs, 40 pmol/kg BW Exendin-4 i.v. together with 0.5 g/kg i.v. glucose, p<0.01
  insulin secretion in GIPR^dn transgenic pigs compared to controls: increased insulin secretion; also recorded: significantly higher increase

## glucose-dependent insulinotropic polypeptide [GIP]
[1]; GIPR^dn transgenic pigs, 20 pmol/kg BW GIP i.v. 3 min after 0.5 g/kg i.v. glucose, glucose alone 7 μU/ml
  increase in glucose-induced insulin concentration (Δ insulin): 11 μU/ml
[1]; control (wt) pigs, 20 pmol/kg BW GIP i.v. 3 min after 0.5 g/kg i.v. glucose, glucose alone 27 μU/ml
  increase in i.v. glucose-induced serum insulin concentration (Δ insulin): 58 μU/ml
[2]
  insulinotropic effect in GIPR^dn transgenic pigs compared to controls: blunted; also recorded: impaired
[2]; 10- to 13-week-old pigs, 80 pmol/kg BW GIP i.v. together with 0.5 g/kg i.v. glucose
  serum insulin levels in control pigs compared to GIPR^dn transgenic pigs: significantly (p<0.01) higher insulin levels
